According to patent US7109376B2, “Benzene and naphthylene derivatives and their use as UV screening agents” (DSM IP Assets B.V., priority 2001, dated 2006):

What was measured:
[1] = irradiated in high dilution with a Hg-lamp 150 W (Heraeus)
[2] = solvent Cétiol LC (Cocoyl cyprylate caprate)
[3] = solvent Crodamol DA (diisopropyladipate)

Compound	photostability [1]	solubility in Cétiol LC [2]	solubility in Crodamol DA [3]	mixability with conventional cosmetic solvents
C=CCc1cc(C(C)(C)C)cc2nc(-c3ccc(-c4nc5cc(C(C)(C)C)cc(CC=C)c5o4)cc3)oc12 [Example 1, 1,4-bis-[2-(5-tert.-butyl-7-allyl-benzoxazol)-yl]-benzene]	photostable	1.1%		
CC(C)(C)c1cc(CCC[Si](C)(C)O[Si](C)(C)C)c2oc(-c3ccc(-c4nc5cc(C(C)(C)C)cc(CCC[Si](C)(C)O[Si](C)(C)C)c5o4)cc3)nc2c1 [Example 2, 1,4-bis-[2-(5-tert.-butyl-7-{3-(1,1,3,3,3-pentamethyl-disiloxanyl)-1-propyl}-benzoxazol)-yl]-benzene]	photostable	18%		
CC(Cc1cccc2nc(-c3ccc(-c4nc5cccc(CC(C)C[Si](C)(C)O[Si](C)(C)C)c5o4)cc3)oc12)C[Si](C)(C)O[Si](C)(C)C (stereo not shown) [Example 3, 1,4-bis-[2-(7-{3-(1,1,3,3,3-pentamethyl-disiloxanyl)-1-isobutyl}-benzoxazol)-yl]-benzene]	photostable		5.03%	
CC(Cc1cc(C(C)(C)C)cc2nc(-c3ccc(-c4nc5cc(C(C)(C)C)cc(CC(C)C[Si](C)(O[Si](C)(C)C)O[Si](C)(C)C)c5o4)cc3)oc12)C[Si](C)(O[Si](C)(C)C)O[Si](C)(C)C (stereo not shown) [Example 5, 1,4-bis-[2-(5-tert.-butyl-7-{3-(1,3,3,3-tetramethyl-1-[(tri-methyl-silyl)-oxy]-disiloxanyl)-1-isobutyl}-benzoxazol)-yl]-benzene]	photostable	12.3%		
CCCCC=CC(C)c1cc(C)cc2nc(-c3ccc(-c4nc5cc(C)cc(C(C)C=CCCCC)c5o4)cc3)oc12 (stereo not shown) [Example 6, 1,4-bis-[2-(5-methyl-7-oct-3-en-2-yl-benzoxazol)-yl]-benzene]	photostable		1.33%	
CCCCC=CC(C)c1cc(C(C)(C)C)cc2nc(-c3ccc(-c4nc5cc(C(C)(C)C)cc(C(C)C=CCCCC)c5o4)cc3)oc12 (stereo not shown) [Example 8, 1,4-bis-[2-(5-tert.-butyl-7-oct-3-en-2-yl-benzoxazol)-yl]-benzene]	photostable			easily mixable
CCCCC=CC(C)c1cccc2nc(-c3ccc(-c4nc5cccc(C(C)C=CCCCC)c5o4)cc3)oc12 (stereo not shown) [Example 9, 1,4-bis-[2-(7-oct-3-en-2-yl-benzoxazol)-yl]-benzene]	photostable	1.02%		
CCCCCCC(C)c1cc(C(C)(C)C)cc2nc(-c3ccc(-c4nc5cc(C(C)(C)C)cc(C(C)CCCCCC)c5o4)cc3)oc12 (stereo not shown) [Example 11, 1,4-bis-[2-(5-tert.-butyl-7-oct-2-yl-benzoxazol)-yl]-benzene]	photostable			easily mixable
